In ChEMBL document CHEMBL1201862, “PubChem BioAssay data set” (2004):
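Cells were grown in 96-well plates and exposed to each compound for 48 hours at five concentrations; endpoints were interpolated linearly between bracketing concentrations, or set to the highest concentration if not reached. GI50 = concentration required for 50% inhibition of growth.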 Active and inactive are the calls of the source. Cut-off read from the data, not from the text of the source: active = GI50 up to about 1.1 µM and inactive = higher.

What was measured:
Assay in all cases: DTP human tumour cell line panel, 48 h
A498 = test system: A498
A549 = test system: A549
CAKI-1 = test system: CAKI-1
CCRF-CEM = test system: CCRF-CEM
COLO 205 = test system: COLO 205
DLD-1 = test system: DLD-1
DMS-114 = test system: DMS-114
DMS-273 = test system: DMS-273
EKVX = test system: EKVX
HCC 2998 = test system: HCC 2998
HCT-116 = test system: HCT-116
HCT-15 = test system: HCT-15
HL-60 = test system: HL-60
HOP-18 = test system: HOP-18
HOP-62 = test system: HOP-62
HOP-92 = test system: HOP-92
HT-29 = test system: HT-29
IGROV-1 = test system: IGROV-1
K562 = test system: K562
KM-20L2 = test system: KM-20L2
KM12 = test system: KM12
LOX IMVI = test system: LOX IMVI
M19-MEL = test system: M19-MEL
MCF7 = test system: MCF7
MOLT-4 = test system: MOLT-4
Malme-3M = test system: Malme-3M
NCI-H226 = test system: NCI-H226
NCI-H23 = test system: NCI-H23
NCI-H460 = test system: NCI-H460
NCI-H522 = test system: NCI-H522
NCI/ADR-RES = test system: NCI/ADR-RES
OVCAR-3 = test system: OVCAR-3
OVCAR-4 = test system: OVCAR-4
OVCAR-5 = test system: OVCAR-5
OVCAR-8 = test system: OVCAR-8
RPMI-8226 = test system: RPMI-8226
RXF 393 = test system: RXF 393
SF-268 = test system: SF-268
SF-295 = test system: SF-295
SF-539 = test system: SF-539
SK-MEL-28 = test system: SK-MEL-28
SK-MEL-2 = test system: SK-MEL-2
SK-MEL-5 = test system: SK-MEL-5
SK-OV-3 = test system: SK-OV-3
SN12C = test system: SN12C
SNB-19 = test system: SNB-19
SNB-75 = test system: SNB-75
SNB-78 = test system: SNB-78
SW-620 = test system: SW-620
U-251 = test system: U-251
UACC-257 = test system: UACC-257
UACC-62 = test system: UACC-62
UO-31 = test system: UO-31
XF498 = test system: XF498

With `CCN1CC2(CO)CCC(OC)C34C5CC6C(OC)CC(O)(C5C6OC)C(O)(C(OC)C23)C14` (centres undefined) the GI50 (A498) was > 375 µM (inactive), the GI50 (A549) was > 375 µM (inactive) and the GI50 (CAKI-1) was > 375 µM (inactive). For the same compound, the GI50 (CCRF-CEM) was > 375 µM (inactive), the GI50 (COLO 205) was > 375 µM (inactive) and the GI50 (DLD-1) was 80.7 µM (inactive). The GI50 (DMS-114) was > 375 µM (inactive), the GI50 (DMS-273) was > 375 µM (inactive) and the GI50 (EKVX) was > 59.4 µM (inactive). For the same compound, the GI50 (HCC 2998) was > 375 µM (inactive), the GI50 (HCT-116) was > 375 µM (inactive) and the GI50 (HCT-15) was greater than 375 µM. The GI50 (HL-60) was > 375 µM (inactive), the GI50 (HOP-18) was > 375 µM (inactive) and the GI50 (HOP-62) was > 375 µM (inactive). The GI50 (HOP-92) was 168 µM (inactive), the GI50 (HT-29) was > 375 µM (inactive) and the GI50 (IGROV-1) was > 375 µM (inactive). The GI50 (K562) was > 375 µM (inactive), the GI50 (KM-20L2) was > 197 µM (inactive) and the GI50 (KM12) was > 375 µM (inactive). The GI50 (LOX IMVI) was > 375 µM (inactive), the GI50 (M19-MEL) was > 375 µM (inactive) and the GI50 (MCF7) was > 375 µM (inactive). The GI50 (MOLT-4) was > 375 µM (inactive), the GI50 (Malme-3M) was > 375 µM (inactive) and the GI50 (NCI-H226) was > 375 µM (inactive). The GI50 (NCI-H23) was > 375 µM (inactive), the GI50 (NCI-H460) was > 375 µM (inactive) and the GI50 (NCI-H522) was > 375 µM (inactive). The GI50 (NCI/ADR-RES) was > 375 µM (inactive), the GI50 (OVCAR-3) was > 174 µM (inactive) and the GI50 (OVCAR-4) was > 375 µM (inactive). The GI50 (OVCAR-5) was > 177 µM (inactive), the GI50 (OVCAR-8) was > 375 µM (inactive) and the GI50 (RPMI-8226) was > 375 µM (inactive). For the same compound, the GI50 (RXF 393) was > 375 µM (inactive), the GI50 (SF-268) was > 375 µM (inactive) and the GI50 (SF-295) was > 375 µM (inactive). For the same compound, the GI50 (SF-539) was > 375 µM (inactive), the GI50 (SK-MEL-28) was > 375 µM (inactive) and the GI50 (SK-MEL-2) was > 59.4 µM (inactive). For the same compound, the GI50 (SK-MEL-5) was > 211 µM (inactive), the GI50 (SK-OV-3) was > 375 µM (inactive) and the GI50 (SN12C) was > 375 µM (inactive). For the same compound, the GI50 (SNB-19) was > 375 µM (inactive), the GI50 (SNB-75) was > 362 µM (inactive) and the GI50 (SNB-78) was > 375 µM (inactive). The GI50 (SW-620) was > 375 µM (inactive), the GI50 (U-251) was > 305 µM (inactive) and the GI50 (UACC-257) was > 375 µM (inactive). The GI50 (UACC-62) was > 375 µM (inactive), the GI50 (UO-31) was > 375 µM (inactive) and the GI50 (XF498) was > 360 µM (inactive).
